In patent US11117947B2, “Double-acylated GLP-1 derivatives” (Novo Nordisk A/S, priority 2011, dated 2021):
pEC50: −log10 of the molar value. Numbered stars: 1 amine (or outer) side, 2 acyl side, 3 side chain; on linkers, the order of the positions; unused ones are H or OH. Square brackets hold non-standard residues; d marks the D form. Side chains are listed from the residue outwards. Peptide text beside a SMILES is read from it. * marks the point of attachment. Decanoyl(10-(4-HOOC-PhO)) = O=C(O)c1ccc(OCCCCCCCCCC(=O)*)cc1; γGlu = O=C(O)[C@H](CCC(=O)[*:2])N[*:1]; C14 diacid = O=C(O)CCCCCCCCCCCCC(=O)*; AEEA = NCCOCCOCC(=O)O; Aib = CC(C)(N)C(=O)O

Columns and labels:
human GLP-1 receptor [1] = target: T1, human GLP-1 receptor (Homo sapiens, UniProt P43220); assay: GLP-1 receptor binding: displacement of 125I-GLP-1 (SPA) at low and high albumin; settings: 2.0% HSA vs 0.001% HSA
T1 construct: expressed in transfected cells; membranes
T1 sequence (P43220 24-463): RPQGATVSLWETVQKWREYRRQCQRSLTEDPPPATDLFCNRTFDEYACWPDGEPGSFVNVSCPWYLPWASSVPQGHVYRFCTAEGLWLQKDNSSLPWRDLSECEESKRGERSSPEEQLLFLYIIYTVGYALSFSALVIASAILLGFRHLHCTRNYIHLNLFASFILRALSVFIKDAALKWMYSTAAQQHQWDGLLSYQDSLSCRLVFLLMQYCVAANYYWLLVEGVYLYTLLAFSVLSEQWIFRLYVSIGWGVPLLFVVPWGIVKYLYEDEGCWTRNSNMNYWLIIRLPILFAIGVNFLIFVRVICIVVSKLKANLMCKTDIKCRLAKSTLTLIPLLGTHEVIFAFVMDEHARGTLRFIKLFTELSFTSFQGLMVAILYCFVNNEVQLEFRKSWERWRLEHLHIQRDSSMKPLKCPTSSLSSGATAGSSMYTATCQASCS
Summary of the method: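 Membranes from hamster cells stably transfected with the receptor, with WGA SPA beads and 0.06 nM [^125I]-GLP-1(7-36)NH2, incubated 120 min at 30 °C with shaking.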

[2] = Pharmacokinetics in rat: half-life after i.v. administration; assay type: in vivo; settings: plasma, iv, 6 nmol/kg, male Sprague Dawley rats, approximately 4 rats per group, read-out: t½/h (half-life in rat) (converted)
Protocol: In vivo pharmacokinetic studies in rats were performed with the GLP-1 derivatives of Examples 2, 10, 17-18, and 31, as described in the following. Semaglutide was included for comparison.
Male Sprague Dawley rats of same age with a body weight of approximately 400 g were obtained from Taconic (Denmark) and assigned to the treatments by simple randomisation on body weight, approximately 4 rats per group, so that all animals in each group were of similar body weight.
The GLP-1 derivatives (approximately 6 nmol/ml) were dissolved in 50 mM sodium phosphate, 145 mM sodium chloride, 0.05% tween 80, pH 7.4. Intravenous injections (1.0 ml/kg) of the compounds were given through a catheter implanted in the right jugular vein. Blood was sampled from vena sublingualis for 5 days post dosing. Blood samples (200 μl) were collected in EDTA buffer (8 mM) and then centrifuged at 4° C. and 10000 G for 5 minutes. Plasma samples were kept at −20° C. until analyzed for plasma concentration of the respective GLP-1 compound.
The plasma concentrations of the GLP-1 compounds were determined using a Luminescence Oxygen Channeling Immunoasssay (LOCI), generally as described for the determination of insulin by Poulsen and Jensen in Journal of Biomolecular Screening 2007, vol. 12, p. 240-247. The donor beads were coated with streptavidin, while acceptor beads were conjugated with a monoclonal antibody recognising a mid-/C-terminal epitope of the peptide. Another monoclonal antibody, specific for the N-terminus, was biotinylated. The three reactants were combined with the analyte and formed a two-sited immuno-complex. Illumination of the complex released singlet oxygen atoms from the donor beads, which were channeled into the acceptor beads and triggered chemiluminescence which was measured in an Envision plate reader. The amount of light was proportional to the concentration of the compound.
Plasma concentration-time profiles were analyzed using Phoenix WinNonLin ver. 6.2, Pharsight Inc., Mountain View, Calif., USA), and the half-life (T1/2) calculated using individual plasma concentration-time profiles from each animal.

[3] = Estimate of oral bioavailability: gut injection in rat (caprate), exposure in plasma; assay type: in vivo; settings: injection in jejunum, 1000 uM in 55 mg/ml sodium caprate, plasma concentration (pM) at 30 min divided by dosing solution concentration (μM), mean n=4
Summary of the method: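 Male Sprague Dawley rats (~240 g, n=4) received 100 μl of 1000 uM derivative in 55 mg/ml sodium caprate by catheter into proximal or mid jejunum. Tail-vein EDTA plasma was sampled up to 240 min. Peptide was quantified by two-antibody bead chemiluminescence immunoassay, giving mean concentration-time profiles (pmol/l).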

human GLP-1 receptor [4] = target: T1, human GLP-1 receptor; assay: In vitro potency: stimulation of cAMP formation (AlphaScreen cAMP Assay) in membranes expressing the human GLP-1 receptor; assay type: biochemical; settings: membranes from BHK467-12A (tk-ts13) expressing the human GLP-1 receptor
Protocol: Purified plasma membranes from a stable transfected cell line, BHK467-12A (tk-ts13), expressing the human GLP-1 receptor were stimulated with the GLP-1 analogue or derivative in question, and the potency of cAMP production was measured using the AlphaScreen™ cAMP Assay Kit from Perkin Elmer Life Sciences. The basic principle of the AlphaScreen Assay is a competition between endogenous cAMP and exogenously added biotin-cAMP. The capture of cAMP is achieved by using a specific antibody conjugated to acceptor beads.
A stable transfected cell line and a high expressing clone were selected for screening. The cells were grown at 5% CO2 in DMEM, 5% FCS, 1% Pen/Strep (Penicillin/Streptomycin) and 0.5 mg/ml of the selection marker G418.
Cells at approximately 80% confluence were washed 2× with PBS and harvested with Versene (aqueous solution of the tetrasodium salt of ethylenediaminetetraacetic acid), centrifuged 5 min at 1000 rpm and the supernatant removed. The additional steps were all performed on ice. The cell pellet was homogenised by the Ultrathurax for 20-30 s in 10 ml of Buffer 1 (20 mM Na-HEPES, 10 mM EDTA, pH=7.4), centrifuged 15 min at 20,000 rpm and the pellet resuspended in 10 ml of Buffer 2 (20 mM Na-HEPES, 0.1 mM EDTA, pH=7.4). The suspension was homogenised for 20-30 s and centrifuged 15 min at 20,000 rpm. Suspension in Buffer 2, homogenisation and centrifugation was repeated once and the membranes were resuspended in Buffer 2. The protein concentration was determined and the membranes stored at −80° C. until use.
The final volume per well was 50 μl.
AlphaScreen cAMP Assay Kit from Perkin Elmer Life Sciences (cat. No: 6760625M); containing Anti-cAMP Acceptor beads (10 U/μl), Streptavidin Donor beads (10 U/μl) and Biotinylated-cAMP (133 U/μl).
cAMP standard (dilution factor in assay=5): cAMP Solution: 5 μL of a 5 mM cAMP-stock+495 μL AlphaScreen Buffer.
Membranes were prepared from hGLP-1/BHK 467-12A cells with a concentration of 6 μg/well corresponding to 0.6 mg/ml (the amount of membranes used pr. well may vary)
“No membranes”: Acceptor Beads (15 μg/ml final) in AlphaScreen buffer
“6 μg/well membranes”: membranes+Acceptor Beads (15 μg/ml final) in AlphaScreen buffer
An aliquot (10 μl) of “No membranes” was added to the cAMP standard (per well in duplicate wells) and the positive and negative controls
An aliquot (10 μl) of “6 μg/well membranes” was added to GLP-1 and analogues (per well in duplicate or triplicate wells)
Pos. Control: 10 μl “no membranes”+10 μl AlphaScreen Buffer
Neg. Control: 10 μl “no membranes”+10 μl cAMP Stock Solution (50 μM)
1. Make the AlphaScreen Buffer.
2. Dissolve and dilute the GLP-1/Analogues/cAMP standard in AlphaScreen Buffer.
4. Add the cAMP/GLP-1/Analogues to the plate: 10 μl per well.
5. Prepare membrane/Acceptor Beads solution and add this to the plates: 10 μl per well.
6. Add the Donor Beads: 30 μl per well.

SMILES	Ratio [(IC50/nM) high HSA]/[(IC50/nM) low HSA] (human GLP-1 receptor [1])	half-life [2]	Dose-corrected exposure at 30 min [3]	pEC50 (human GLP-1 receptor [4])
CC[C@H](C)[C@H](NC(=O)[C@H](Cc1ccccc1)NC(=O)[C@H](CCCCNC(=O)COCCOCCNC(=O)COCCOCCNC(=O)CC[C@H](NC(=O)CCCCCCCCCOc1ccc(C(=O)O)cc1)C(=O)O)NC(=O)[C@H](CCCNC(=N)N)NC(=O)[C@H](C)NC(=O)[C@H](C)NC(=O)[C@H](CCC(N)=O)NC(=O)[C@H](CCC(=O)O)NC(=O)[C@H](CCC(=O)O)NC(=O)[C@H](CC(C)C)NC(=O)[C@H](Cc1ccc(O)cc1)NC(=O)[C@H](CO)NC(=O)[C@H](CO)NC(=O)[C@@H](NC(=O)[C@H](CC(=O)O)NC(=O)[C@H](CO)NC(=O)[C@@H](NC(=O)[C@H](Cc1ccccc1)NC(=O)[C@@H](NC(=O)CNC(=O)[C@H](CCC(=O)O)NC(=O)C(C)(C)NC(=O)[C@@H](N)Cc1c[nH]cn1)[C@@H](C)O)[C@@H](C)O)C(C)C)C(=O)N[C@@H](CCC(=O)O)C(=O)N[C@@H](Cc1c[nH]c2ccccc12)C(=O)N[C@@H](CC(C)C)C(=O)N[C@H](C(=O)N[C@@H](CCCNC(=N)N)C(=O)NCC(=O)N[C@@H](CCCCNC(=O)COCCOCCNC(=O)COCCOCCNC(=O)CC[C@H](NC(=O)CCCCCCCCCOc1ccc(C(=O)O)cc1)C(=O)O)C(=O)NCC(=O)N[C@@H](CCC(=O)O)C(=O)NCC(=O)O)C(C)C [Example 31, N^ε27-[2-[2-[2-[[2-[2-[2-[[(4S)-4-carboxy-4-[10-(4-carboxyphenoxy)decanoylamino]butanoyl]amino]ethoxy]ethoxy]acetyl]amino]ethoxy]ethoxy]acetyl], N^ε36-[2-[2-[2-[[2-[2-[2-[[(4S)-4-carboxy-4-[10-(4-carboxyphenoxy)decanoylamino]butanoyl]amino]ethoxy]ethoxy]acetyl]amino]ethoxy]ethoxy]acetyl]-[Aib^8,Glu^22,Arg^26,Lys^27,Glu^30,Arg^34,Lys^36]-GLP-1-(7-37)-peptidyl-Glu-Gly] (H-H[Aib]EGTFTSDVSSYLEEQAARK([AEEA-AEEA-γGlu-Decanoyl(10-(4-HOOC-PhO))])FIEWLVRGK([AEEA-AEEA-γGlu-Decanoyl(10-(4-HOOC-PhO))])GEG-OH; N-terminus and C-terminus assumed)	629	19 h	–	–
CC[C@H](C)[C@H](NC(=O)[C@H](Cc1ccccc1)NC(=O)[C@H](CCCCNC(=O)COCCOCCNC(=O)COCCOCCNC(=O)CC[C@H](NC(=O)CCCCCCCCCCCCC(=O)O)C(=O)O)NC(=O)[C@H](CCCNC(=N)N)NC(=O)[C@H](C)NC(=O)[C@H](C)NC(=O)[C@H](CCC(N)=O)NC(=O)[C@H](CCCCNC(=O)COCCOCCNC(=O)COCCOCCNC(=O)CC[C@H](NC(=O)CCCCCCCCCCCCC(=O)O)C(=O)O)NC(=O)[C@H](CCC(=O)O)NC(=O)[C@H](CC(C)C)NC(=O)[C@H](Cc1ccc(O)cc1)NC(=O)[C@H](CO)NC(=O)[C@H](CO)NC(=O)[C@@H](NC(=O)[C@H](CC(=O)O)NC(=O)[C@H](CO)NC(=O)[C@@H](NC(=O)[C@H](Cc1ccccc1)NC(=O)[C@@H](NC(=O)CNC(=O)[C@H](CCC(=O)O)NC(=O)C(C)(C)NC(=O)[C@@H](N)Cc1c[nH]cn1)[C@@H](C)O)[C@@H](C)O)C(C)C)C(=O)N[C@@H](C)C(=O)N[C@@H](Cc1c[nH]cn1)C(=O)N[C@@H](CC(C)C)C(=O)N[C@H](C(=O)NCC(=O)O)C(C)C [Example 19, N^ε22-[2-[2-[2-[[2-[2-[2-[[(4S)-4-carboxy-4-(13-carboxytridecanoylamino)butanoyl]amino]ethoxy]ethoxy]acetyl]amino]ethoxy]ethoxy]acetyl], N^ε27-[2-[2-[2-[[2-[2-[2-[[(4S)-4-carboxy-4-(13-carboxytridecanoylamino)butanoyl]amino]ethoxy]ethoxy]acetyl]amino]ethoxy]ethoxy]acetyl]-[Aib^8,Lys^22,Arg^26,Lys^27,His^31,Gly^34]-GLP-1-(7-34)-peptide] (H-H[Aib]EGTFTSDVSSYLEK([AEEA-AEEA-γGlu-C14 diacid])QAARK([AEEA-AEEA-γGlu-C14 diacid])FIAHLVG-OH)	60	–	61	10.28
CC[C@H](C)[C@H](NC(=O)[C@H](Cc1ccccc1)NC(=O)[C@H](CCCCNC(=O)COCCOCCNC(=O)COCCOCCNC(=O)CC[C@H](NC(=O)CCCCCCCCCOc1ccc(C(=O)O)cc1)C(=O)O)NC(=O)[C@H](Cc1c[nH]cn1)NC(=O)[C@H](C)NC(=O)[C@H](C)NC(=O)[C@H](CCC(N)=O)NC(=O)[C@H](CCC(=O)O)NC(=O)[C@H](CCC(=O)O)NC(=O)[C@H](CC(C)C)NC(=O)[C@H](Cc1ccc(O)cc1)NC(=O)[C@H](CO)NC(=O)[C@H](CO)NC(=O)[C@@H](NC(=O)[C@H](CC(=O)O)NC(=O)[C@H](CO)NC(=O)[C@@H](NC(=O)[C@H](Cc1ccccc1)NC(=O)[C@@H](NC(=O)CNC(=O)[C@H](CCC(=O)O)NC(=O)[C@H](C)NC(=O)[C@@H](N)Cc1c[nH]cn1)[C@@H](C)O)[C@@H](C)O)C(C)C)C(=O)N[C@@H](CCC(=O)O)C(=O)N[C@@H](Cc1c[nH]c2ccccc12)C(=O)N[C@@H](CC(C)C)C(=O)N[C@H](C(=O)N[C@@H](CCCNC(=N)N)C(=O)NCC(=O)N[C@@H](CCCCNC(=O)COCCOCCNC(=O)COCCOCCNC(=O)CC[C@H](NC(=O)CCCCCCCCCOc1ccc(C(=O)O)cc1)C(=O)O)C(=O)NCC(=O)N[C@@H](CCC(=O)O)C(=O)O)C(C)C [Example 21, N^ε27-[2-[2-[2-[[2-[2-[2-[[(4S)-4-carboxy-4-[10-(4-carboxyphenoxy)decanoylamino]butanoyl]amino]ethoxy]ethoxy]acetyl]amino]ethoxy]ethoxy]acetyl], N^ε36-[2-[2-[2-[[2-[2-[2-[[(4S)-4-carboxy-4-[10-(4-carboxyphenoxy)decanoylamino]butanoyl]amino]ethoxy]ethoxy]acetyl]amino]ethoxy]ethoxy]acetyl]-[Glu^22,His^26,Lys^27,Glu^30,Arg^34,Lys^36]-GLP-1-(7-37)-peptidyl-Glu] (H-HAEGTFTSDVSSYLEEQAAHK([AEEA-AEEA-γGlu-Decanoyl(10-(4-HOOC-PhO))])FIEWLVRGK([AEEA-AEEA-γGlu-Decanoyl(10-(4-HOOC-PhO))])GE-OH; N-terminus and C-terminus assumed)	–	–	140	10.28
